Assay results reported in US20090076012A1, “Modulation of pathogenicity” (priority 2002, published 2009).
Read-outs that look alike come from different tables or passages of the source.

Test system: bioluminescent sensor strain Escherichia coli MT102 (pSB403)
Assay: Biosensor assay: quorum sensing inhibition, bioluminescence of the sensor strain
Type: cell-based
Settings: 3oxo-C6-HSL 100 nM, bioluminescence after 4 hours at 30° C.
Protocol: Quorum sensing inhibition of the compounds was investigated with the aid of the bioluminescent sensor strain Escherichia coli MT102 (pSB403) (Winson et al., FEMS Microbiol. Lett. 163:185-92, 1998). Plasmid pSB403 contains the Photobacterium fischeri luxR gene together with the […] promoter region as a transcriptional fusion to the bioluminescence genes luxCDABE of Photorhabdus luminescence.
Inhibitory studies were conducted in a microtitre dish assay as follows: the E. coli sensor strain grown over night in LB medium (Sambrook et al., Molecular Cloning: A Laboratory Manual. 2nd Edn. Cold Spring Harbor Laboratory, New York, 1989) was diluted 1:4 and grown for another 1 hour at 30° C. After addition of 3oxo-C6-HSL (final concentration 100 nM) 100 μl of an exponential culture suspension were filled in the wells of a FluoroNunc Polysorp microtitre dish. The test compounds were added to the culture in different concentrations and bioluminescence was measured after 4 hours of incubation at 30° C. with a Lamda Fluoro 320 Plus reader (Bio-Tek Instruments). Inhibitor-mediated reduction of light emission was correlated with the value obtained without addition of the test compounds. IC50 values (concentration of inhibitor required for 50% inhibition of the signal compared to the signal without inhibitor) were determined by using a fitting function after drawing a graph of the activities of eight different inhibitor concentrations.

Compound | IC50 (Escherichia coli, 4 h) [µM] | IC50 (read-out: IC50) [µM]
CCCCCCCC(=O)NNC(=O)c1cccnc1Cl [Compound 94, 2-Chloro-nicotinic acid N′-octanoyl-hydrazide] | 1 to 50 | 
CCOC(=O)CC(=O)NNC(=O)c1sccc1Br [Compound 95] | 1 to 50 | 
CCOC(=O)CC(=O)NNC(=O)c1cc2ccccc2s1 [Compound 96, 3-[N′-(Benzo[b]thiophene-2-carbonyl)-hydrazino]-3-oxo-propionic acid ethyl ester] | 50 to 100 | 
O=C(NNS(=O)(=O)c1ccc(Cl)s1)c1cccs1 [Compound 97, N′-(5-Chloro-thiophen-2-sulfonyl)-thiophene-2-carboxylic acid hydrazide] | 1 to 50 | 
CCCC(=O)NNS(=O)(=O)c1ccc(Cl)s1 [Compound 98, Butyric acid N′-(5-chloro-thiophen-2-sulfonyl)-hydrazide] | 50 to 100 | 
CCCCCCC(=O)NNS(=O)(=O)c1ccc(Cl)s1 [Compound 99, N′-(5-Chloro-thiophen-2-sulfonyl)-heptanoic acid hydrazide] | > 100 | 
CCCCNC(=S)NNC(=O)c1cccs1 [Compound 100, 4-Butyl-1-(thiophene-2-carbonyl)-thiosemicarbazide] | 1 to 50 | 
CCCCCNC(=O)NNC(=O)c1cc(Br)c(Br)s1 [Compound 101, 1-(4,5-Dibromo-thiophene-2-carbonyl)-4-pentyl-semicarbazide] | > 100 | 
O=C(NNC(=O)c1ccc(Br)s1)Nc1ccc(F)cc1C(F)(F)F [Compound 102, 1-(5-Bromo-thiophene-2-carbonyl)-4-(4-fluoro-2-trifluoromethyl-phenyl)-semicarbazide] | > 100 | 
O=C(NNC(=O)c1cc(Br)c(Br)s1)Nc1ccc(Cl)c(C(F)(F)F)c1 [Compound 103, 4-(4-Chloro-3-trifluoromethyl-phenyl)-1-(4,5-dibromo-thiophene-2-carbonyl)-semicarbazide] | 50 to 100 | 
O=C(NNC(=O)c1cc(Br)c(Br)s1)Nc1cccc(C(F)(F)F)c1 [Compound 104, 1-(4,5-Dibromo-thiophene-2-carbonyl)-4-(3-trifluoromethyl-phenyl)-semi-carbazide] | 1 to 50 | 
CSc1ccc(NC(=O)NNC(=O)c2scc(C)c2Cl)cc1 [Compound 105, 1-(3-Chloro-4-methyl-thiophene-2-carbonyl)-4-(4-methylsulfanyl-phenyl)-semicarbazide] | 1 to 50 | 
Cc1csc(C(=O)NNC(=O)Nc2ccc(Br)cc2)c1Cl [Compound 106, 4-(4-Bromo-phenyl)-1-(3-chloro-4-methyl-thiophene-2-carbonyl)-semicarbazide] | 1 to 50 | 
O=C(NNC(=O)c1ccc(Br)s1)Nc1ccccc1CCl [Compound 107, 1-(5-Bromo-thiophene-2-carbonyl)-4-(2-chloromethyl-phenyl)-semicarbazide] | 1 to 50 | 
O=C(NNC(=O)c1ccc(Cl)s1)Nc1ccccc1CCl [Compound 108, 4(2-Chloro-methyl-phenyl)-1-(5-chloro-thiophene-2-carbonyl)-semicarbazide] | 1 to 50 | 
COc1ccc(NC(=O)NNC(=O)c2ccc(Br)s2)cc1 [Compound 109, 1-(5-Bromo-thiophene-2-carbonyl)-4-(4-methoxy-phenyl)-semicarbazide] | > 100 | 
O=C(NNC(=O)c1ccc(Br)s1)Nc1c(F)cccc1F [Compound 110, 1-(5-Bromo-thiophene-2-carbonyl)-4-(2,6-difluoro-phenyl)-semicarbazide] | > 100 | 
O=C(NNC(=O)c1sc2ccccc2c1Cl)Nc1cc(Cl)nc(Cl)c1 [Compound 111, 1-(3-Chloro-benzo[b]thiophen-2-carbonyl)-4-(2,6-dichloro-pyridinyl)-semicarbazide] | > 100 | 
Cc1ccccc1NC(=O)NNC(=O)c1sc2ccccc2c1Cl [Compound 112, 1-(3-Chloro-benzo[b]thiophene-2-carbonyl)-4-o-tolyl-semi-carbazide] | > 100 | 
CCCCCCC(=O)CC(=O)Nc1ccn[nH]1 [Compound 113, 3-Oxo-nonanoic acid (2H-pyrazol-3-yl)-amide] | > 100 | 
CCCCCCC(=O)CC(=O)Nc1ccnn1C [Compound 114, 3-Oxo-nonanoic acid (2methyl-2H-pyrazol-3-yl)-amide] | > 100 | 
CCCCCCCCCC(=O)CC(=O)Nc1ccnn1C [Compound 115, 3-Oxo-dodecanoic acid (2-methyl-2H-pyrazol-3-yl)-amide] | > 100 | 
CCCCCCC(=O)CC(=O)Nc1ccnn1CC [Compound 116, 3-Oxo-nonanoic acid (2-ethyl-2H-pyrazol-3-yl)-amide] | > 100 | 

Compound | IC50 (Escherichia coli, 4 h) [µM] | IC50 (read-out: IC50) [µM]
CCCCCCCCCC(=O)CC(=O)Nc1ccnn1CC [Compound 117, 3-Oxo-dodecanoic acid (2-ethyl-2H-pyrazol-3-yl)-amide] | > 100 | 
CCCCCCC(=O)CC(=O)Nc1cc(C)nn1C [Compound 118, 3-Oxo-nonanoic acid (2,5-dimethyl-2H-pyrazol-3-yl)-amide] | > 100 | 
CCCCCCCCCC(=O)CC(=O)Nc1cc(C)nn1C [Compound 119, 3-Oxo-dodecanoic acid (2,5-dimethyl-2H-pyrazol-3-yl)-amide] | > 100 | 
CCCCCCC(=O)CC(=O)Nn1cccn1 [Compound 120, 3-Oxo-nonanoic acid pyrazol-1-ylamide] | > 100 | 
CCCCCCC(=O)CC(=O)Nc1sccc1C(=O)OC [Compound 121, 2-(3-Oxo-nonanoylamino)-thiophene-3-carboxylic acid methyl ester] | > 100 | 
CCCCCCCCCC(=O)CC(=O)Nc1sccc1C(=O)OC [Compound 122, Z(3-Oxo-dodecanoylamino)-thiophene-3-carboxylic acid methyl ester] |  | > 100
CCCCCCC(=O)CC(=O)Nc1scc(C)c1C(=O)OCC [Compound 123, 4-Methyl-2-(3-oxo-nonanoylamino)-thiophene-3-carboxylic acid ethyl ester] | > 100 | 
CCCCCCCCCC(=O)CC(=O)Nc1scc(C)c1C(=O)OCC [Compound 124, 4-Methyl-2-(3-oxo-dodecanoylamino)-thiophene-3-carboxylic acid ethyl ester] | > 100 | 
CCCCCCC(=O)CC(=O)Nc1cc(C)ns1 [Compound 125, 3-Oxo-nonanoic acid (3-methyl-isothiazol-5-yl)-amide] | > 100 | 
CCCCCCCCCC(=O)CC(=O)Nc1cc(C)ns1 [Compound 126, 3-Oxo-dodecanoic acid (3-methyl-isothiazol-5-yl)-amide] | > 100 | 
CCCCCCC(=O)CC(=O)Nc1nccs1 [Compound 127, 3-Oxo-nonanoic acid thiazol-2-ylamide] | > 100 | 
CCCCCCCCCC(=O)CC(=O)Nc1nccs1 [Compound 128, 3-Oxo-dodecanoic acid thiazol-2-ylamide] | > 100 | 
CCCCCCC(=O)CC(=O)Nc1nc(SC)sc1C(C)=O [Compound 129, 3-Oxo-nonanoic acid (5-acetyl-2-methylsulfanyl-thiazol-4-yl)-amide] | > 100 | 
CCCCCCC(=O)CC(=O)Nc1ccon1 [Compound 130, 3-Oxo-nonanoic acid isoxazol-3-ylamide] | > 100 | 
CCCCCCCCCC(=O)CC(=O)Nc1ccon1 [Compound 131, 3-Oxo-dodecanoic acid isoxazol-3-ylamide] | > 100 | 
CCCCCCC(=O)CC(=O)Nc1cc(C)no1 [Compound 132, 3-Oxo-nonanoic acid (3-methyl-isoxazol-5-yl)-amide] | > 100 | 
CCCCCCCCCC(=O)CC(=O)Nc1cc(C)no1 [Compound 133, 3-Oxo-dodecanoic acid (3-methyl-isoxazol-5-yl)-amide] | > 100 | 
CCCCCCC(=O)CC(=O)Nc1nc(C)co1 [Compound 134, 3-Oxo-nonanoic acid (4-methyl-oxazol-2-yl)-amide] | > 100 | 
CCCCCCC(=O)CC(=O)Nc1oc(C)nc1C#N [Compound 135, 3-Oxo-nonanoic acid (4cyano-2-methyl-oxazol-5-yl)-amide] | 50 to 100 | 
CCCCCCC(=O)CC(=O)Nc1oc(C)c(C)c1C#N [Compound 136, 3-Oxo-nonanoic acid (3-cyano-4,5-dimethyl-furan-2-yl)-amide] | > 100 | 
CCCCCCCCCC(=O)CC(=O)Nc1oc(C)c(C)c1C#N [Compound 137, 3-Oxododecanoic acid (3-cyano-4,5-dimethyl-furan-2-yl)-amide] | > 100 | 
CCCCCCC(=O)CC(=O)Nc1ccc(C(=O)OC)o1 [Compound 138, 5-(3-Oxo-nonanoylamino)-furan-2-carboxylic acid methyl ester] | > 100 | 
